Drawing on ChEMBL document CHEMBL5291721, “A preclinical secondary pharmacology resource illuminates target-adverse drug reaction associations of marketed drugs” (Nat Commun, 2023), this text covers AC50 for 46 compounds.

Each structure is given as a SMILES string.

Test [1] has as its target T1, Alpha-1A adrenergic receptor (Homo sapiens, UniProt P35348).
T1 sequence (P35348 whole entry): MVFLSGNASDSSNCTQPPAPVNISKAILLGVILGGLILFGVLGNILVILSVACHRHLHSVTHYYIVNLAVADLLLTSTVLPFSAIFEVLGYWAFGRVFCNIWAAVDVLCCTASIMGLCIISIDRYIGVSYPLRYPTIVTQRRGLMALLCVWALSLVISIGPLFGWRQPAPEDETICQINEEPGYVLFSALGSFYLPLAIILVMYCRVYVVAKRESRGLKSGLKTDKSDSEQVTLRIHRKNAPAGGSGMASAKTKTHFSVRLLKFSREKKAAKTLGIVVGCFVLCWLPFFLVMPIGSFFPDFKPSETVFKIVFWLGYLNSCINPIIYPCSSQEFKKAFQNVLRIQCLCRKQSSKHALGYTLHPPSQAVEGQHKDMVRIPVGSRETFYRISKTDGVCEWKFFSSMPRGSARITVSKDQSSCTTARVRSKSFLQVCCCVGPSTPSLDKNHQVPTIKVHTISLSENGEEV

For test [2], the target named is T2, Muscarinic acetylcholine receptor M2 (Homo sapiens, UniProt P08172).
T2 sequence (P08172 whole entry): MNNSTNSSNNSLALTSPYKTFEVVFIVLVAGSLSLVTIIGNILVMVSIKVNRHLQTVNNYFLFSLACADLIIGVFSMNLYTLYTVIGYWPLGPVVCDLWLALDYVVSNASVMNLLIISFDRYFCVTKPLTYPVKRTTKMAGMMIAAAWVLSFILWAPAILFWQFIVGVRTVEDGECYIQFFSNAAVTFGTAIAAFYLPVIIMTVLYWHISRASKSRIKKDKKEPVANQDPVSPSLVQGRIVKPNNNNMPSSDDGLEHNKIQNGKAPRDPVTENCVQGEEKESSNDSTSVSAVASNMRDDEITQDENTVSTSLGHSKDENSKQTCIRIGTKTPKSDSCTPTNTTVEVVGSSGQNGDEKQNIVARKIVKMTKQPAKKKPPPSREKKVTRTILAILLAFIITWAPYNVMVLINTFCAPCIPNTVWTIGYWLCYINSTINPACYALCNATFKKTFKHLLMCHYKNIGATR
The test is classed as functional, cell-based.

In test [3] the target is Sodium channel protein type 5 subunit alpha (Homo sapiens, UniProt Q14524). Type of test: functional, cell-based.
The target in test [4] is 5-hydroxytryptamine receptor 2A (Homo sapiens, UniProt P28223). The test is classed as functional, cell-based.
Test [5] has as its target T3, Gamma-aminobutyric acid receptor subunit alpha-1/alpha-2/beta-2/gamma-2 (Homo sapiens, UniProt P14867+P18507+P47869+P47870). Type of test: protein-complex assay.
In test [6] the target is T3, Gamma-aminobutyric acid receptor subunit alpha-1/alpha-2/beta-2/gamma-2. The test is classed as functional, cell-based.
Test [7] shares this target. Type of test: functional, cell-based. This is another data set of the same source.
For the next test, the target named is Mu-type opioid receptor (Homo sapiens, UniProt P35372). The experiment in a line: biochemical. The test is classed as functional.

Broadly, the AC50 is the midpoint of the concentration-response curve, whichever way the signal moves. Low values mean activity at low concentration, high ones activity only at high concentration.
Note: assay procedure not described here.

Sodium channel protein type 5 subunit alpha, sequence (Q14524 whole entry): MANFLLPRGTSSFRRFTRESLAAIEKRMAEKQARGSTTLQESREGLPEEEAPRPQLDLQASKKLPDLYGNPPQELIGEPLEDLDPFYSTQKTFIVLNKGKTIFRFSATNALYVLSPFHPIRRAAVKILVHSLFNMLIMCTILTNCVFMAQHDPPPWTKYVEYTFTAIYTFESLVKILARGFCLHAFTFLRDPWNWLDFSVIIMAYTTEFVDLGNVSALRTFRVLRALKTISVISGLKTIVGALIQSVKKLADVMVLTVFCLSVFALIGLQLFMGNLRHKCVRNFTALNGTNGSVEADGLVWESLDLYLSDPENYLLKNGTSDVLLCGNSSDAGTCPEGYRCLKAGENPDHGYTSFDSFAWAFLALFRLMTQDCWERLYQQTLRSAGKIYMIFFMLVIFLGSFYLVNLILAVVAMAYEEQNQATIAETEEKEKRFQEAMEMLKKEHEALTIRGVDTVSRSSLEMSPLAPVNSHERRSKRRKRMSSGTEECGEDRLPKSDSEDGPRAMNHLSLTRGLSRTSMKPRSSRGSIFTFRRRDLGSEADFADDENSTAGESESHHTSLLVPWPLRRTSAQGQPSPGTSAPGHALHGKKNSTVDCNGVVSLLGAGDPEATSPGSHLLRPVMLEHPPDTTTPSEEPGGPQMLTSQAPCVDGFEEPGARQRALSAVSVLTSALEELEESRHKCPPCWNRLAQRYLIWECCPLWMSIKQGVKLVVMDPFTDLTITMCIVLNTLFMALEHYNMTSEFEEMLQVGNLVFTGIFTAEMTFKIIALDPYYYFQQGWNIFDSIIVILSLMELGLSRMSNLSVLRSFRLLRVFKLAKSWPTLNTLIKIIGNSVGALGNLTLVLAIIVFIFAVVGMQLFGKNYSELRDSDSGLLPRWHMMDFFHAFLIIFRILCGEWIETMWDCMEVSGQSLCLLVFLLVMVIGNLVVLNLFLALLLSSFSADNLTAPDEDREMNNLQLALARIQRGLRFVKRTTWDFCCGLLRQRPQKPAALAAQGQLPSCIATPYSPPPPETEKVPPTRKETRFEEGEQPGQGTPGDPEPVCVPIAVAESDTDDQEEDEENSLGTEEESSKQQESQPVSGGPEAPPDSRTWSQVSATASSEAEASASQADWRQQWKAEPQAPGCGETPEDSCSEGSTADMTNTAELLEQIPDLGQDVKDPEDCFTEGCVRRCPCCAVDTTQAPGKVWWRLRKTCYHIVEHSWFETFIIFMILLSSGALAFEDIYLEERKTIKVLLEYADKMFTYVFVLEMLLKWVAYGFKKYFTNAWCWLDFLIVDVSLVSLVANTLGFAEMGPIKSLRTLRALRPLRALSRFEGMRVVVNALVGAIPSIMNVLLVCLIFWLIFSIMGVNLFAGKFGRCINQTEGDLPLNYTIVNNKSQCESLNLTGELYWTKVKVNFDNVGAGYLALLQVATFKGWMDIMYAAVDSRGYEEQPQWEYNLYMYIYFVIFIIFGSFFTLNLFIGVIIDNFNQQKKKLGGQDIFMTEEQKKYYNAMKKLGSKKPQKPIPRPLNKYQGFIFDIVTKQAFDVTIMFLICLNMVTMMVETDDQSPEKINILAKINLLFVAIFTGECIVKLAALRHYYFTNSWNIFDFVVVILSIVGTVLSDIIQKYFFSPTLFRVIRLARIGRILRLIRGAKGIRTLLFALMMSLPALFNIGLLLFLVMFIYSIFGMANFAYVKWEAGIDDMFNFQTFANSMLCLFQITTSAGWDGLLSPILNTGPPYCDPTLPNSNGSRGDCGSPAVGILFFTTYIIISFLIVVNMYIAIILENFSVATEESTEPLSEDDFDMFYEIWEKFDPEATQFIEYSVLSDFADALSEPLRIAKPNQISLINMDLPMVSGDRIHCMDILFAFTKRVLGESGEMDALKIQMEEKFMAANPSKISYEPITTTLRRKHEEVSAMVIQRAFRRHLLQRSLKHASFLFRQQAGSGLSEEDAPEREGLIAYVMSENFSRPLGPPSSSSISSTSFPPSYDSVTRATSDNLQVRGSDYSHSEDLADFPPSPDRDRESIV
Mu-type opioid receptor, sequence (P35372 whole entry): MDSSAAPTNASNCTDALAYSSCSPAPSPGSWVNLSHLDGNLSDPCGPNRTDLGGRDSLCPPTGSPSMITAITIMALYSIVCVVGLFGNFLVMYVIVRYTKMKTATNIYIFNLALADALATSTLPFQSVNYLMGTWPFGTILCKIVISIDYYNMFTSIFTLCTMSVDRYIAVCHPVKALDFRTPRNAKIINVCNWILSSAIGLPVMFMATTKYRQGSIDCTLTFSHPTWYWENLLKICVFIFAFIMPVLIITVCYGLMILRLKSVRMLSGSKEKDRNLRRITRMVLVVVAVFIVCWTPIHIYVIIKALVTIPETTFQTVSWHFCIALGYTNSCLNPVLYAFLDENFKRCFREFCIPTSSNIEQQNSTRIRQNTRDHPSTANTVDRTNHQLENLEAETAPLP
T3 sequence (P14867 whole entry): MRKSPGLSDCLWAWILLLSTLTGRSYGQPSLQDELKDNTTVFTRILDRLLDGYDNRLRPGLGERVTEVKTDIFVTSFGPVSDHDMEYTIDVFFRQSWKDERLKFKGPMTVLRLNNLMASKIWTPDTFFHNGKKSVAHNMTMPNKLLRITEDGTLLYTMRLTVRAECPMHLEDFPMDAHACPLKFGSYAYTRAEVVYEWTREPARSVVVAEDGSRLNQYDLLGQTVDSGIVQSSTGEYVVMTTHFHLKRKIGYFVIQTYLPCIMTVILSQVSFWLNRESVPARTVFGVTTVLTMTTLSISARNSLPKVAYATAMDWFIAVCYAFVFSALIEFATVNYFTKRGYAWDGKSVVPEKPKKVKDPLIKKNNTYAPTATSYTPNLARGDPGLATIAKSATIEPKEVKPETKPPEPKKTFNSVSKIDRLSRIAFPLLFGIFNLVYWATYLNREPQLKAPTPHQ
T3 sequence (P47870 whole entry): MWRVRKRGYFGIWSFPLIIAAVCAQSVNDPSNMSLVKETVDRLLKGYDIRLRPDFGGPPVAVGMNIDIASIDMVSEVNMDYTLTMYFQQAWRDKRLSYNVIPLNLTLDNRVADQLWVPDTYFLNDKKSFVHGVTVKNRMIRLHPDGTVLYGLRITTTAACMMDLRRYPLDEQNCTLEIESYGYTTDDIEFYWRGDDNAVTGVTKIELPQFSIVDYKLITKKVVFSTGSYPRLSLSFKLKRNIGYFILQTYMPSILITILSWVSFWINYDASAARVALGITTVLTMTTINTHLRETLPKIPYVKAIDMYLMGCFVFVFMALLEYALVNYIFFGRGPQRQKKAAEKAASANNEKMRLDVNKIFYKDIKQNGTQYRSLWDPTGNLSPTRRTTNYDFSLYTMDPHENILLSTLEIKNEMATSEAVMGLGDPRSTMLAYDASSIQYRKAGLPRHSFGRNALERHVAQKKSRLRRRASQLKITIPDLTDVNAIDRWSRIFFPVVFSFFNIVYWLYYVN
T3 sequence (P18507 whole entry): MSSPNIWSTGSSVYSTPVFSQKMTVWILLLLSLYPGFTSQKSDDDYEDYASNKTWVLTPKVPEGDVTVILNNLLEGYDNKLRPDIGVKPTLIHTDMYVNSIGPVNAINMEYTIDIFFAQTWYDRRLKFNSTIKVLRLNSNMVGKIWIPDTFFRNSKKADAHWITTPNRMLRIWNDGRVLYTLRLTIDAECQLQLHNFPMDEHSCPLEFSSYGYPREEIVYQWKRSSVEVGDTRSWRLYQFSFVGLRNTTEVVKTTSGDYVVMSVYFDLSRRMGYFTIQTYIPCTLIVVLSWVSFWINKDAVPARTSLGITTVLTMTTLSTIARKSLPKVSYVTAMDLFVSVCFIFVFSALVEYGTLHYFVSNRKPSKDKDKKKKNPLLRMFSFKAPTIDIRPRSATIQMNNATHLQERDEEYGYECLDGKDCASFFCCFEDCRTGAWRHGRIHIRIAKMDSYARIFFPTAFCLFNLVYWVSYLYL
T3 sequence (P47869 whole entry): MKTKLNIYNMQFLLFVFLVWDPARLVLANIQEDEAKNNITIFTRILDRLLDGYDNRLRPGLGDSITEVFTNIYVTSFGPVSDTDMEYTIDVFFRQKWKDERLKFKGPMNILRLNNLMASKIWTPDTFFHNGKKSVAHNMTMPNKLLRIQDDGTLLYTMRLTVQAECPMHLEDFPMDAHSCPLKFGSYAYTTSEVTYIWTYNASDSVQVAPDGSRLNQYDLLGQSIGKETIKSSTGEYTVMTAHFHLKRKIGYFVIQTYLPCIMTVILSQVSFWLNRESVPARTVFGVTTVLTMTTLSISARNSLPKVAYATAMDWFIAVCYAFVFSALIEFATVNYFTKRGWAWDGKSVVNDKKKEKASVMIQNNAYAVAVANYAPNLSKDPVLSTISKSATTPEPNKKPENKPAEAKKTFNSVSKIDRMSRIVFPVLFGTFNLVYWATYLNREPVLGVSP
5-hydroxytryptamine receptor 2A, sequence (P28223 whole entry): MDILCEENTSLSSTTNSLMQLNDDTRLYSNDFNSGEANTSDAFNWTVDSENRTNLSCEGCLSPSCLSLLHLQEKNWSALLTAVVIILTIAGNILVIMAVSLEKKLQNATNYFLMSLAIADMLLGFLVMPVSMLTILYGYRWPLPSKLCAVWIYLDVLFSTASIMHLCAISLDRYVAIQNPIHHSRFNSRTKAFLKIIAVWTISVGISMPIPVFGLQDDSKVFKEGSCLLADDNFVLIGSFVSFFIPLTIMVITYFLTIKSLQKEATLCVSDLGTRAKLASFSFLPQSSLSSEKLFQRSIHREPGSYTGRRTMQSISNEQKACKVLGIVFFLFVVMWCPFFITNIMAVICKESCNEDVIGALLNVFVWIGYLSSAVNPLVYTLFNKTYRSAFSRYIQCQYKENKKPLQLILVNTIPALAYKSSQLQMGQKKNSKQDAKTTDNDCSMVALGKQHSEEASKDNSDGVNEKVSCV

For `CCOC(=O)[C@H](CCc1ccccc1)N[C@@H](C)C(=O)N1Cc2ccccc2C[C@H]1C(=O)O`, the results for the AC50 in test [1], in test [2] and in test [3] were greater than 10 µM, greater than 10 µM and greater than 30 µM, respectively.
Take `C=CC1=C(C(=O)O)N2C(=O)[C@@H](NC(=O)/C(=N\O)c3csc(N)n3)[C@H]2SC1`: the values for the AC50 in test [1], in test [2] and in test [4] were greater than 10 µM, greater than 10 µM and greater than 30 µM, respectively.
In turn, `CC#CC(=O)N1CCC[C@H]1c1nc(-c2ccc(C(=O)Nc3ccccn3)cc2)c2c(N)nccn12` [ACALABRUTINIB] had an AC50 in test [5] greater than 30 µM.
Turning to `O=C(O)COC(=O)Cc1ccccc1Nc1c(Cl)cccc1Cl` [ACECLOFENAC], the AC50 in test [1] and in test [2] was greater than 10 µM in each case.
Regarding `CN(C)CCc1c[nH]c2ccc(CS(=O)(=O)N3CCCC3)cc12` [ALMOTRIPTAN], the AC50 (in test [2]; in test [6]; in test [7]; in test [4]; on Mu-type opioid receptor) was greater than 30 µM each time.
With `CC[N+](CC)(CCNC(=O)C(=O)NCC[N+](CC)(CC)Cc1ccccc1Cl)Cc1ccccc1Cl` [AMBENONIUM], the AC50 in test [2] is 2.2 µM; in test [4] it was greater than 30 µM; at Mu-type opioid receptor, 4.3 µM.
Turning to `NCCCNCCSP(=O)(O)O` [AMIFOSTINE], the AC50 (in test [2]; at Mu-type opioid receptor) was greater than 30 µM in each case.
As to `NCCCCCC(=O)O` [AMINOCAPROIC ACID], the AC50 in test [1] and in test [2] was greater than 10 µM in each case.
Consider `CN(C)CCC=C1c2ccccc2CCc2ccccc21` [AMITRIPTYLINE], for which the AC50 in test [1] is 0.0299 µM; in test [5] it was greater than 30 µM; in test [3], 1.81 µM.
For `CC(C)C[C@H](NC(=O)[C@H](Cc1ccccc1)NC(=O)c1cnccn1)B(O)O` [BORTEZOMIB], the AC50 (in test [1]; in test [2]; in test [4]; on Mu-type opioid receptor) was greater than 30 µM in each case.
Regarding `C[C@H](CS)C(=O)N1CCC[C@H]1C(=O)O` [CAPTOPRIL], the half-maximal activity concentration (AC50) in test [1] and in test [2] was greater than 10 µM throughout.
Take `CN(C)CCOC(c1ccc(Cl)cc1)c1ccccn1` (stereo not drawn) [CARBINOXAMINE]: the AC50 in test [2] is 26 µM; in test [6] it was greater than 30 µM; in test [7], greater than 30 µM; in test [4], greater than 30 µM; at Mu-type opioid receptor, greater than 30 µM.
Regarding `CCN(CC)CCn1c(=O)c(Cc2ccc(OC)cc2)nc2ccccc21` [CAROVERINE], the AC50 in test [1] was 8.9 µM; in test [2], greater than 30 µM; in test [4] it was 9.7 µM; on Mu-type opioid receptor, greater than 30 µM.
`NC(=O)C1(N2CCCCC2)CCN(CCCN2c3ccccc3CCc3ccccc32)CC1` [CARPIPRAMINE] gave a half-maximal activity concentration (AC50) in test [5] greater than 30 µM.
For `O=C(Cc1cccs1)N[C@@H]1C(=O)N2C(C(=O)[O-])=C(C[n+]3ccccc3)CS[C@H]12` [CEPHALORIDINE], the AC50 (in test [2]; in test [6]; in test [7]; in test [4]; at Mu-type opioid receptor) was greater than 30 µM in each case.
Turning to `CN1CCN(C(c2ccccc2)c2ccc(Cl)cc2)CC1` (stereo not drawn) [CHLORCYCLIZINE], the AC50 in test [5] was greater than 30 µM.
Regarding `CN(C)CCCC1(c2ccc(F)cc2)OCc2cc(C#N)ccc21` (stereo not drawn) [CITALOPRAM], the AC50 in test [3] was greater than 30 µM.
As for `O=P1(N(CCCl)CCCl)NCCCO1` (stereo not drawn) [CYCLOPHOSPHAMIDE ANHYDROUS], the half-maximal activity concentration (AC50) in test [5] is greater than 30 µM.
Consider `CC(C)Nc1cccnc1N1CCN(C(=O)c2cc3cc(NS(C)(=O)=O)ccc3[nH]2)CC1` [DELAVIRDINE], for which the AC50 in test [5] was greater than 10 µM.
With `COC(=O)CCc1ccc(OCC(O)CNC(C)C)cc1` (stereo not drawn) [ESMOLOL], the half-maximal activity concentration (AC50) (in test [1]; in test [2]; at Mu-type opioid receptor) was greater than 30 µM in each case.
On to `O=c1[nH]c2ccccc2n1CCN1CCN(c2cccc(C(F)(F)F)c2)CC1` [FLIBANSERIN], for which the AC50 in test [5] was greater than 10 µM.
Turning to `C[C@]12CCC(=O)C=C1CC[C@H]1[C@@H]3CC[C@](O)(C(=O)CO)[C@@]3(C)C[C@H](O)[C@@]12F` [FLUDROCORTISONE], the AC50 in test [1] is greater than 10 µM; in test [2] it was greater than 30 µM; in test [4] it was greater than 30 µM.
For the compound `CCOC(=O)Nc1ccc(NCc2ccc(F)cc2)nc1N` [FLUPIRTINE], the AC50 in test [2] is greater than 30 µM; in test [4] it was greater than 10 µM; at Mu-type opioid receptor it was greater than 30 µM.
`O=C(O)[C@H](O)[C@@H](O)[C@H](O)[C@H](O)CO` [GLUCONIC ACID] registered an AC50 in test [5] greater than 30 µM.
As to `CCN(CCO)CCCC(C)Nc1ccnc2cc(Cl)ccc12` (stereo not drawn) [HYDROXYCHLOROQUINE], the AC50 in test [1] was greater than 10 µM; in test [2], greater than 10 µM; on Mu-type opioid receptor, greater than 30 µM.
For `OCCOCCN1CCN(C(c2ccccc2)c2ccc(Cl)cc2)CC1` (stereo not drawn) [HYDROXYZINE], the AC50 is 1.66 µM in test [1], greater than 10 µM in test [2] and 6 µM in test [4].
With `N#Cc1ccnc(N2C(=O)CC[C@H]2C(=O)N(c2cncc(F)c2)[C@H](C(=O)NC2CC(F)(F)C2)c2ccccc2Cl)c1` [IVOSIDENIB], the concentration at half-maximal activity (AC50) in test [5] was greater than 30 µM; in test [3], greater than 50 µM.
`CNC1(c2ccccc2Cl)CCCCC1=O` (stereo not drawn) [KETAMINE] came in with an AC50 in test [5] greater than 30 µM.
Take `O=C(c1ccccc1)c1ccc2n1CCC2C(=O)O` (stereo not drawn) [KETOROLAC]: the half-maximal activity concentration (AC50) in test [1] is greater than 10 µM; in test [2], greater than 30 µM; at Mu-type opioid receptor, 0.0013 µM.
Turning to `Nc1nnc(-c2cccc(Cl)c2Cl)c(N)n1` [LAMOTRIGINE], the AC50 in test [1] is greater than 10 µM; in test [2] it was greater than 10 µM; in test [3], greater than 50 µM.
Take `N[C@@H](Cc1cc(I)c(Oc2cc(I)c(O)c(I)c2)c(I)c1)C(=O)O` [LEVOTHYROXINE]: the AC50 (in test [2]; in test [6]; in test [7]; in test [4]; at Mu-type opioid receptor) was greater than 30 µM throughout.
Consider `CC(=O)NC[C@H]1CN(c2ccc(N3CCOCC3)c(F)c2)C(=O)O1` [LINEZOLID], for which the half-maximal activity concentration (AC50) was greater than 30 µM at Mu-type opioid receptor and greater than 50 µM in test [3].
For the compound `CNC1(C)C2CCC(C2)C1(C)C` (stereo not drawn) [MECAMYLAMINE], the AC50 in test [1], in test [2] and in test [4] was greater than 10 µM each time.
Turning to `CS(=O)(=O)Nc1ccc([N+](=O)[O-])cc1Oc1ccccc1` [NIMESULIDE], the AC50 (in test [2]; in test [6]; in test [7]; in test [5]; at Mu-type opioid receptor) was greater than 30 µM each time.
In test [5], `CCCCCCCC/C=C\CCCCCCCC(=O)O` [OLEIC ACID] showed an AC50 greater than 30 µM.
As to `C#CCN(C)Cc1ccccc1` [PARGYLINE], the AC50 (in test [2]; in test [6]; in test [7]; in test [4]; at Mu-type opioid receptor) was greater than 30 µM each time.
With `CC1=C(C/C=C(\C)CCC[C@H](C)CCC[C@H](C)CCCC(C)C)C(=O)c2ccccc2C1=O` [PHYTONADIONE], the AC50 in test [5] is greater than 30 µM.
Same read-out and setting: the same measure for `NC(=O)C1(N2CCCCC2)CCN(CCCC(=O)c2ccc(F)cc2)CC1` [PIPAMPERONE]: greater than 30 µM; for `CC(C)(Oc1ccc(Cl)cc1)C(=O)NC(=O)NCN1CCOCC1` [PLAFIBRIDE]: greater than 30 µM; for `CC(C)NC[C@H](O)COc1ccc(O)cc1` [PRENALTEROL]: greater than 30 µM.
Consider `CCC1(c2ccccc2)C(=O)NCNC1=O` [PRIMIDONE], for which the AC50 in test [1] and in test [2] was greater than 10 µM throughout.
Turning to `CCOc1ccccc1OCCN[C@H](C)Cc1ccc(OC)c(S(N)(=O)=O)c1` [TAMSULOSIN], the AC50 in test [2] was greater than 10 µM; in test [4] it was greater than 30 µM; at Mu-type opioid receptor it was 3.8 µM.
Taken in the same sequence, the figures for `C[C@H](Cn1cnc2c(N)ncnc21)OCP(=O)(O)O` [TENOFOVIR ANHYDROUS] were greater than 30 µM, greater than 30 µM and greater than 30 µM.
For the compound `Cc1ccc(C(C)C)c(O)c1` [THYMOL], the AC50 in test [5] is greater than 30 µM.
With `CN(C)CCN(Cc1ccccc1)c1ccccn1` [TRIPELENNAMINE], the AC50 was 10.8 µM in test [1], greater than 10 µM in test [2] and 7.3 µM in test [4].
Regarding `Cc1cccc(C)c1NC(=O)c1cc(S(N)(=O)=O)c(Cl)cc1O` [XIPAMIDE], the AC50 in test [5] is greater than 30 µM.
